Test results taken from ChEMBL document CHEMBL1129157, “Design and synthesis of a new class of conformationally constrained inhibitors to probe the active sites of thermolysine and neutral endopeptidase 24.11” (Bioorg Med Chem Lett, 1996).

Columns and labels:
Neprilysin = biological target: T1, Neprilysin (Rattus norvegicus, UniProt P07861); assay: Compound was tested for inhibition of rat kidney neutral endopeptidase
T1 sequence (P07861 whole entry): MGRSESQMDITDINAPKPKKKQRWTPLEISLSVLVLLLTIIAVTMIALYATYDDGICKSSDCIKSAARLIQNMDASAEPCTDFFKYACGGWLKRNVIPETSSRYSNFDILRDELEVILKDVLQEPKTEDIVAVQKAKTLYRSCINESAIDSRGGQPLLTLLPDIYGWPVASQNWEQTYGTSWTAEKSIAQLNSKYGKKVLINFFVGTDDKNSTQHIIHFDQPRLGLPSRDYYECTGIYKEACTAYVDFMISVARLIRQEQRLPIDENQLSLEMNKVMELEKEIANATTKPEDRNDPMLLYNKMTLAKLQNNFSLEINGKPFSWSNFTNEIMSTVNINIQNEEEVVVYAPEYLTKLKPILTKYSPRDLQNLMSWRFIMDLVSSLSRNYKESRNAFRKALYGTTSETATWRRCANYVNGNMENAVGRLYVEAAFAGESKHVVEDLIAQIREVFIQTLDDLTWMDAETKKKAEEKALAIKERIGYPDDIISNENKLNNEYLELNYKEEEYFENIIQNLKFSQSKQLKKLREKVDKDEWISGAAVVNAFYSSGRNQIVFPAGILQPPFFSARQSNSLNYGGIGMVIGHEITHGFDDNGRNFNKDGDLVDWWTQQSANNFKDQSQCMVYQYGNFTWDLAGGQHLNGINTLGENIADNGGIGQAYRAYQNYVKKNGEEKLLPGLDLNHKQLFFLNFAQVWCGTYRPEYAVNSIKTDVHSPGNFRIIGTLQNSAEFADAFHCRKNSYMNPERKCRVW

[1] = Compound was tested for inhibition of thermolysine, a bacterial zinc-endopeptidase; type: functional

SMILES | IC50 (Neprilysin) [nM] | IC50 [1] [µM]
O=C(O)CNC(=O)[C@H]1[C@H](S)CC[C@@H]1c1ccccc1 | 430 | 29
O=C(O)[C@@H]1CCCC2c3ccccc3C[C@H](CS)C(=O)N21 (some centres not stated) | > 300 | –
O=C(O)CNC(=O)[C@@H]1[C@@H](S)CC[C@H]1c1ccccc1 | 480 | 110
O=C(O)CNC(=O)[C@H](CS)Cc1ccccc1 [(R)-THIORPHAN] | – | 3
O=C(O)CNC(=O)[C@@H](CS)Cc1ccccc1 [(S)-THIORPHAN] | – | 1.8
